From paper PMC11869128, “Bayesian Optimization over Multiple Experimental Fidelities Accelerates Automated Discovery of Drug Molecules” (ACS Central Science, 2025)
Like-named read-outs stand apart in the source and are kept apart here. Each block holds one compound with its values, some of them ahead of it.

Tests used:
[1] = tested on: HDAC; details: cited from earlier work
[2] = tested on: HDAC; experiment: HDAC fluorometric assay, dose-response curve (high fidelity); details: read-out: IC50 (Dose-Response Curve), manually synthesized molecules
Method: HDAC inhibition is automatically measured in a plate reader with a fluorometric assay (Abcam ab283378). In the plate-based assay, the liquid handler first dispenses individual purified products in dimethyl sulfoxide into each well, then adds buffer containing HDAC and a peptide substrate containing an acetylated lysine residue. The solution is agitated and incubated for 30 min at 37 °C, then a developer, which reacts with primary amines to form a fluorescent product, is dispensed and incubated for another 30 min. After the second incubation, the plate is transferred to the plate reader to measure fluorescence corresponding to uninhibited HDAC activity. The platform handles all aspects of the assay; dispensing reagents, timing incubation, transferring plates, preparing positive and negative controls, and analyzing fluorescent readouts without human input.

[3] = tested on: HDAC; experiment: HDAC fluorometric assay, single-point percent inhibition (medium fidelity); assay type: biochemical; details: for IC50: first iteration, assuming binding follows the Hill equation and is noncooperative, assay run at 20 μM scale, read-out: IC50 corresponding to single point inhibition
From the text: In the first iteration, the experimental design algorithm recommended that 3,385 candidates be docked (39% of budget), 261 candidates screened for single-point percent inhibition (61% of budget), and no candidates be manually synthesized for full dose–response characterization (0% of budget). The total budget was 100.0 with the same experiment cost structure of 0.01 for docking, 0.2 for single-point, and 1.0 for dose response curve. Docking was automatically performed with DiffDock, and the resulting conformers scored based on their binding to the catalytic zinc ion and overlap with bound known inhibitors from X-ray crystallography. For the candidates selected for automatic synthesis, the reactions were batched by temperature into well plates to be run in parallel on the automated platform. With a maximum allowance of 6 well plates, the platform attempted to synthesize 79 candidates, with an average of 2.4 reaction steps required for each candidate. Based on observation of the expected mass-to-charge ratio (m/z) during automatic HPLC-MS analysis, 40 of the syntheses were successful. The successful syntheses were automatically purified with semipreparative HPLC, the concentration of the inhibitor was automatically estimated,[47] and the fluorometric inhibition assay was automatically run at 20 μM scale. The structures, synthesis plans, assay scores, and statistics for the attempted molecules are in the SI.

SMILES: CCCC(CCC)C(=O)O [valproate]
- IC50 ([1]; FDA approved nonhydroxamate inhibitor): 180000 nM

SMILES: O=C1CCc2cc(Nn3cnnc3)ccc21 [5-((1,2,4-triazol-4-yl)amino)-indan-1-one]
- inhibition in the single-point assay ([3]; second iteration, automated synthesis and assay): 11%

SMILES: CCN(CC)Cc1ccc2cc(COC(=O)Nc3ccc(C(=O)NO)cc3)ccc2c1 [givinostat]
- IC50 ([1]; FDA approved hydroxamate): 837 nM

Continued, values first:

- IC50 [2]: 1.8 nM
SMILES: CC(/C=C/C(=O)NO)=C\[C@@H](C)C(=O)c1ccc(N(C)C)cc1 [trichostatin A]

- IC50 [3]: 7250 nM
SMILES: O=[N+]([O-])c1ccc(N(S(=O)(=O)c2cccc3cccnc23)S(=O)(=O)C(F)(F)F)cc1 [c]

- IC50 [3]: 1140 nM
SMILES: CC(C)(C)N(S(C)(=O)=O)S(=O)(=O)c1cccc(Br)c1 [a]

- IC50 [3]: 3310 nM
SMILES: Cc1ccc(S(=O)(=O)N(c2ccc([N+](=O)[O-])cc2)C2CCC2)cc1 [b]
